# Key:
# cytochrome P450 OleP [1] = target: T1, cytochrome P450 OleP (Streptomyces antibioticus, UniProt Q59819); assay: UV-visible equilibrium titration (Type I Soret shift); crystal structure of the ternary complex with L-rhamnose ([…] Å); format: binding
# T1 construct: wild type enzyme
# T1 sequence (Q59819 1-407): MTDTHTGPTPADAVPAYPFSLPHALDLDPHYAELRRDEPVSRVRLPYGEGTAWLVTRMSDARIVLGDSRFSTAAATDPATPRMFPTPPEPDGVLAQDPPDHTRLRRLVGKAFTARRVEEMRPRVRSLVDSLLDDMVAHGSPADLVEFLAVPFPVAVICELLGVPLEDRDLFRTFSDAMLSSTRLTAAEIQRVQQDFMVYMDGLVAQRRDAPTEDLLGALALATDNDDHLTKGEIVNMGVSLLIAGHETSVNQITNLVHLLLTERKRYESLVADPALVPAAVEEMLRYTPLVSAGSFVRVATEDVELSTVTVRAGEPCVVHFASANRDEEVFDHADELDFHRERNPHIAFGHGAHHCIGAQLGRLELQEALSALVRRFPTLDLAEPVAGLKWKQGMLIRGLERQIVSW
# cytochrome P450 OleP [2] = target: T1, cytochrome P450 OleP; assay: UV-visible equilibrium titration (Type I Soret shift); crystal structures 6ZHZ, 6ZI2 and 6ZI7; format: binding
Structure (SMILES),Kd (cytochrome P450 OleP [1]),Kd (cytochrome P450 OleP [2])
"CC[C@H]1OC(=O)[C@H](C)[C@@H](O)[C@H](C)[C@@H](O)[C@@H](C)C[C@@H](C)C(=O)[C@H](C)[C@@H](O)[C@H]1C [6DEB, 6-deoxyerythronolide B]",3.2 ± 0.1 µM,–
"C[C@@H]1[C@@H](O)[C@@H](C)C[C@H](C)C(=O)[C@H](C)[C@@H](O)[C@@H](C)[C@@H](C)OC(=O)[C@H](C)[C@H]1O [DEO, 8.8a-deoxyoleandolide]",–,23 ± 2 µM

# Source: PMC7600006, “Dissecting the Cytochrome P450 OleP Substrate Specificity: Evidence for a Preferential Substrate” (Biomolecules, 2020)
